Laboratory results from patent US20080081801A1, “PORPHYRIN OXYGEN INFUSION FOR INCREASING CONCENTRATIONS IN TUMOR TISSUES” (priority 2002, published 2008).

Test system: Ascites hepatoma LY80
Assay: Oxygen partial pressure in tumor tissues of tumor-bearing rats after intra-arterial injection of the sample (phosphorescence quenching, PdPor, OxySpot)
Assay type: in vivo, Donryu rats
Conditions: oxygen-saturated sample
Experimental: Animals with cancer were prepared by transplanting tumor cells in desired sites of laboratory animals such as, for example, rats, hamsters, rabbits or beagles.
Rats were bred for several days until tumors develop and then subjected to experiments under anesthesia (e.g., using Nembutal, diethyl ether or halothane anesthetic gas). Rats were intubated through the cervical trachea and ventilated under positive pressure by a respirator. A polyethylene catheter was inserted into a left carotid artery so that a distal end of the catheter is located at a position short of a bifurcation of the common iliac artery, and then backward cannulation was carried out to provide an administration rout of sample in the descending aorta.
The oxygen partial pressure in the tumor tissues may be determined by intravenously injecting a phosphorescent probe (palladium coproporphyrin (PdPor)), irradiating light, and monitoring a phosphorescence quenching time with an oxygen partial pressure monitor. PdPor is intravenously injected through a tail vein at 5-20 minutes before administration of the sample. […] The oxygen partial pressure in the tumor site of the right leg was measured at 5 to 30 points in air or an atmosphere containing 99% oxygen with a device for measurement of an oxygen partial pressure (e.g., OxySpot (Trademark) made by Medical System Corp.), and served as controls. […]

Substance: bovine serum albumin: serum albumin, injected oxygen-saturated without porphyrin
- change in the oxygen partial pressure (PO2) in the tumor tissue: no change
